Experiments:
HIF-PH2 (EGLN1) = biological target: T1, HIF-PH2 (EGLN1) (Homo sapiens, UniProt Q9GZT9); assay: HIF-PH2 (PHD2) assay (fluorescence polarization method); assay type: biochemical; conditions: 200 nM HIF PH2 enzyme, 50 nM peptide substrate, 30° C. one hour; read-out: IC50 (HIF PH2 inhibition activity)
T1 construct: made in house; host or cells: E. coli
Procedure: HIF-PH2 (EGLN1) was expressed from E. coli cells, and purified using two process: an Ni-affinity chromatography column and a size-exclusion chromatography column.
To evaluate activities of an HIF PH2 inhibitor, HIF PH2 enzyme that was first overexpressed by genetic recombination and then purified was used to perform an enzyme reaction. […] At this time, 2 mM ascorbic acid and 5 mM ketoglutarate with 100 μM FeCl2 or without FeCl2, were used together with crude enzyme. A concentration of HIF PH2 inhibitor to be tested was treated and reacted at 30° C. for one hour. After the reaction, the resulting reaction product was boiled at 95° C. for one minute to suppress the enzyme reaction.
To determine whether prolyl hydroxylation occurs in the substrate as the secondary reaction, 500 nM GST-VBC (GST-VHL-Elongin B-Elongin C) protein was added to a reaction buffer (50 mM Tris-Cl (pH8.0), 120 mM NaCl, 0.5% Nonidet P40), and a GST-VBC binding reaction was carried out at room temperature for 30 minutes.
A fluorescence polarization value of a sample that is not treated with the HIF PH2 inhibitor was used as 100% control, and the activities of the HIF PH2 inhibitor were measured as percentage of the remaining HIF PH2 enzyme activity in samples treated with a concentration of the HIF PH2 inhibitor to be tested.

EPO = assay: Human EPO immunoassay (ELISA of Hep3B culture media); assay type: cell-based; conditions: Hep3B cells, compound at 100 μM, 24-hour incubation; for EPO (mIU/ml): culture media ELISA; for fold induction at 100 µM: Homo sapiens, read-out: Fold Induction over control (EPO Induction)
Procedure: Human cells derived from hepatocarcinoma (Hep3B) tissue (see, e.g., American Type Culture Collection, Manassas Va.) were grown at 37° C., 20% O2, 5% CO2 in DMEM (GIBCO)+10% FBS, 4.5 g/L D-Glucose; L-Glutamate and 110 mg/L sodium pyruvate. Ninety-six well plates were seeded with 4×10^4 HEP3B cells/well. The media was removed and replaced with DMEM+10% FBS. Compounds were added to wells at concentrations between 1 μM-100 μM for a 24-hour incubation. Cell culture media was harvested and EPO concentration was determined using a Human Erythropoietin Quantikine IVD ELISA Kit (R&D Systems®, Minneapolis, Minn.) following the manufacturer's instructions for the benchtop assay.

T1 sequence (Q9GZT9 whole entry, species assumed): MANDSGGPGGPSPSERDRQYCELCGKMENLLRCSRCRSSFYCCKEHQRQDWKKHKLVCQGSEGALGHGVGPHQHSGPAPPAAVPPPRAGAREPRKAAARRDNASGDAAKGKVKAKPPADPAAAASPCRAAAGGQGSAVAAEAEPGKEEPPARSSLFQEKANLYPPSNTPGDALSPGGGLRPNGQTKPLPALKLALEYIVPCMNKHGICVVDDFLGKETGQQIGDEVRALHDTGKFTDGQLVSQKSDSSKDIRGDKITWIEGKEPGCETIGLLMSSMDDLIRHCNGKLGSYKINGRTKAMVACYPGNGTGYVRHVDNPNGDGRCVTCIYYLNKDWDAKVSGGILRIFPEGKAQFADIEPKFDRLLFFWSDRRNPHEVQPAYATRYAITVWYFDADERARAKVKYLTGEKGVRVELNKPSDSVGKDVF

IC50 (HIF-PH2 (EGLN1))	Structure (SMILES)	EPO (mIU/ml) (EPO)	fold induction at 100 µM (EPO)
< 25 µM	CC(C)Oc1ccc2c(c1)sc1c(O)c(C(=O)NCC(=O)O)nc(Cl)c12 [[(1-Chloro-4-hydroxy-7-isopropoxy-benzo[4,5]thieno[3,2-c]pyridine-3-carbonyl)-amino]-acetic acid]	L (L = >61 mIU/ml)	21 to 50
101 to 200 µM	CC(C)Oc1c(C(=O)NCC(=O)O)nc(Cl)c2c1sc1ccc(O)cc12 [[(1-Chloro-8-hydroxy-4-isopropoxy-benzo[4,5]thieno[3,2-c]pyridine-3-carbonyl)-amino]-acetic acid]	–	–
> 201 µM	O=C(O)CN(O)C(=O)c1ncc2c(sc3ccccc32)c1Cl [[(4-Chloro-benzo[4,5]thieno[3,2-c]pyridine-3-carbonyl)-hydroxy-amino]-acetic acid]	–	–
> 201 µM	C[C@H](NC(=O)c1ncc2ccoc2c1O)C(=O)O [(S)-2-[(7-Hydroxy-furo[3,2-c]pyridine-6-carbonyl)-amino]-propionic acid]	–	–
< 25 µM	COc1ccc2c(c1)sc1c(O)c(C(=O)NCC(=O)O)nc(Cl)c12 [[(1-Chloro-4-hydroxy-7-methoxy-benzo[4,5]thieno[3,2-c]pyridine-3-carbonyl)-amino]-acetic acid]	I (I = 0-20 mIU/ml)	21 to 50
< 25 µM	CCNc1ccc2sc3c(O)c(C(=O)NCC(=O)O)nc(Cl)c3c2c1 [[(1-Chloro-8-ethylamino-4-hydroxy-benzo[4,5]thieno[3,2-c]pyridine-3-carbonyl)-amino]-acetic acid]	K (K = 41-60 mIU/ml)	51 to 70
< 25 µM	O=C(O)CNC(=O)c1nc(Cl)c2c(sc3ccc(NCc4ccccc4)cc32)c1O [[(8-Benzylamino-1-chloro-4-hydroxy-benzo[4,5]thieno[3,2-c]pyridine-3-carbonyl)-amino]-acetic acid]	–	–
101 to 200 µM	O=C(O)CNC(=O)c1ncc2c(-c3ccccc3)coc2c1O [[(7-Hydroxy-3-phenyl-furo[3,2-c]pyridine-6-carbonyl)-amino]-acetic acid]	–	–
< 25 µM	O=C(O)CNC(=O)c1nc(Br)c2c(sc3ccccc32)c1F [[(1-Bromo-4-fluoro-benzo[4,5]thieno[3,2-c]pyridine-3-carbonyl)-amino]-acetic acid]	–	–
> 201 µM	Nc1c(C(=O)NCC(=O)O)nc(Br)c2c1sc1ccccc12 [[(4-Amino-1-bromo-benzo[4,5]thieno[3,2-c]pyridine-3-carbonyl)-amino]-acetic acid]	–	–
< 25 µM	O=C(O)CNC(=O)c1nc(Cl)c2c(sc3ccc(C(F)(F)F)cc32)c1O [[(1-Chloro-4-hydroxy-8-trifluoromethyl-benzo[4,5]thieno[3,2-c]pyridine-3-carbonyl)-amino]-acetic acid]	J (J = 21-40 mIU/ml)	21 to 50
< 25 µM	O=C(O)CNC(=O)c1nc(Cl)c2c(sc3ccc(NS(=O)(=O)c4ccccc4)cc32)c1O [[(8-Benzenesulfonylamino-1-chloro-4-hydroxy-benzo[4,5]thieno[3,2-c]pyridine-3-carbonyl)-amino]-acetic acid]	I (I = 0-20 mIU/ml)	< 20
< 25 µM	O=C(O)CNC(=O)c1nc(Cl)c2c(sc3ccc(O)cc32)c1O [[(1-Chloro-4,8-dihydroxy-benzo[4,5]thieno[3,2-c]pyridine-3-carbonyl)-amino]-acetic acid]	I (I = 0-20 mIU/ml)	< 20
–	O=C(O)CNC(=O)c1ncc2c(oc3ccccc32)c1O [[(4-Hydroxy-benzo[4,5]furo[3,2-c]pyridine-3-carbonyl)-amino]-acetic acid]	I (I = 0-20 mIU/ml)	< 20
26 to 100 µM	CCS(=O)(=O)c1ccc2sc3c(O)c(C(=O)NCC(=O)O)nc(Cl)c3c2c1 [[(1-Chloro-8-ethanesulfonyl-4-hydroxy-benzo[4,5]thieno[3,2-c]pyridine-3-carbonyl)-amino]-acetic acid]	–	–
26 to 100 µM	O=C(NCc1cccnc1)c1nc(Br)c2c(sc3ccccc32)c1O [1-Bromo-4-hydroxy-benzo[4,5]thieno[3,2-c]pyridine-3-carboxylic acid (pyridin-3-ylmethyl)-amide]	–	–

IC50 (HIF-PH2 (EGLN1))	Structure (SMILES)	EPO (mIU/ml) (EPO)	fold induction at 100 µM (EPO)
< 25 µM	COC(=O)CNC(=O)c1nc(Cl)c2c(ccn2S(=O)(=O)c2ccccc2)c1O [[(1-Benzenesulfonyl-7-chloro-4-hydroxy-1H-pyrrolo[2,3-c]pyridine-5-carbonyl)-amino]-acetic acid methyl ester]	–	–
> 201 µM	O=C(O)CNC(=O)c1nc(Cl)c2[nH]ccc2c1O [[(7-Chloro-4-hydroxy-1H-pyrrolo[2,3-c]pyridine-5-carbonyl)-amino]-acetic acid]	–	–
101 to 200 µM	COc1c(C(=O)NCC(=O)O)nc(Cl)c2c1sc1ccc(O)cc12 [[(1-Chloro-8-hydroxy-4-methoxy-benzo[4,5]thieno[3,2-c]pyridine-3-carbonyl)-amino]-acetic acid]	–	–
101 to 200 µM	O=C(O)CN(O)C(=O)c1ncc2c(sc3ccccc32)c1O [[Hydroxy-(4-hydroxy-benzo[4,5]thieno[3,2-c]pyridine-3-carbonyl)-amino]-acetic acid]	–	–
> 201 µM	O=C(O)CNC(=O)c1ncc2ccoc2c1O [[(7-Hydroxy-furo[3,2-c]pyridine-6-carbonyl)-amino]-acetic acid]	–	–
< 25 µM	O=C(O)CNC(=O)c1nc(Cl)c2c(sc3ccc([S+]([O-])c4ccccc4)cc32)c1O (centres unmarked) [[(8-Benzenesulfinyl-1-chloro-4-hydroxy-benzo[4,5]thieno[3,2-c]pyridine-3-carbonyl)-amino]-acetic acid]	–	–
< 25 µM	Cc1nc(C(=O)NCC(=O)O)c(O)c2sc3cc(F)ccc3c12 [[(7-Fluoro-4-hydroxy-1-methyl-benzo[4,5]thieno[3,2-c]pyridine-3-carbonyl)-amino]-acetic acid]	L (L = >61 mIU/ml)	21 to 50
–	O=C(O)CNC(=O)c1ncc2c(sc3ccccc32)c1O [[(4-Hydroxy-benzo[4,5]thieno[3,2-c]pyridine-3-carbonyl)-amino]-acetic acid]	I (I = 0-20 mIU/ml)	< 20
< 25 µM	O=C(O)CNC(=O)c1nc(Cl)c2c(ccn2S(=O)(=O)c2ccccc2)c1O [[(1-Benzenesulfonyl-7-chloro-4-hydroxy-1H-pyrrolo[2,3-c]pyridine-5-carbonyl)-amino]-acetic acid]	I (I = 0-20 mIU/ml)	< 20
26 to 100 µM	O=C(O)CNC(=O)c1nc(Cl)c2c(sc3ccc(S(=O)(=O)Cc4ccccc4)cc32)c1O [[(1-Chloro-4-hydroxy-8-phenylmethanesulfonyl-benzo[4,5]thieno[3,2-c]pyridine-3-carbonyl)-amino]-acetic acid]	–	–
< 25 µM	O=C(O)CNC(=O)c1ncc2c(cnn2-c2ccccn2)c1O [[(4-Hydroxy-1-pyridin-2-yl-1H-pyrazolo[3,4-c]pyridine-5-carbonyl)-amino]-acetic acid]	I (I = 0-20 mIU/ml)	< 20
< 25 µM	CCN(CC)c1ccc2sc3c(O)c(C(=O)NCC(=O)O)nc(Cl)c3c2c1 [[(1-Chloro-8-diethylamino-4-hydroxy-benzo[4,5]thieno[3,2-c]pyridine-3-carbonyl)-amino]-acetic acid]	J (J = 21-40 mIU/ml)	21 to 50
< 25 µM	O=C(O)CNC(=O)c1nc(Cl)c2c(sc3ccc(S(=O)(=O)c4ccccc4)cc32)c1O [[(8-Benzenesulfonyl-1-chloro-4-hydroxy-benzo[4,5]thieno[3,2-c]pyridine-3-carbonyl)-amino]-acetic acid]	–	–
–	Cc1nc(C(=O)NCC(=O)O)c(O)c2sc3ccccc3c12 [[(4-Hydroxy-1-methyl-benzo[4,5]thieno[3,2-c]pyridine-3-carbonyl)-amino]-acetic acid]	J (J = 21-40 mIU/ml)	> 71
< 25 µM	O=C(O)CNC(=O)c1nc(Cl)c2c(sc3cc(O)ccc32)c1O [[(1-Chloro-4,7-dihydroxy-benzo[4,5]thieno[3,2-c]pyridine-3-carbonyl)-amino]-acetic acid]	I (I = 0-20 mIU/ml)	< 20

— patent US20110028507A1, “PYRIDINE DERIVATIVES AND METHODS OF USE THEREOF” (CRYSTALGENOMICS, INC., priority 2007, published 2011)
